Data set [1] can be described thus: inhibitors of intracellular T. cruzi replication, confirmation, NIH3T3 host cells, beta-gal luminescence (AID 2044).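 Note: intracellular parasites grown in NIH/3T3 mouse fibroblasts as host cells; luminescent beta-galactosidase reporter signal from transgenic T. cruzi replicating inside host cells; inhibitors lower the luminescence signal.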 Format: functional, cell-based.
Data set [2] is described as follows: cytotoxicity toward NIH3T3 fibroblasts, dose response, counter-screen, cell-based, ATP luminescence, mouse fibroblasts (AID 2010).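 Note: cells exposed to compound for about 90 hours before reading.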 The data set is classed as functional. (A counterscreen serves to expose hits that act by an unwanted route or on another target.)
The target of data set [3] is Cytochrome P450 2C19 (Homo sapiens, UniProt P33261). In words: Cytochrome panel assay with activity outcomes. Panel member name: p450-cyp2c19 Compounds with AC50 equal or less than 10 uM are considered active. Format: functional.

Active and inactive are the calls of the source.

Chain of Cytochrome P450 2C19 (P33261 whole entry): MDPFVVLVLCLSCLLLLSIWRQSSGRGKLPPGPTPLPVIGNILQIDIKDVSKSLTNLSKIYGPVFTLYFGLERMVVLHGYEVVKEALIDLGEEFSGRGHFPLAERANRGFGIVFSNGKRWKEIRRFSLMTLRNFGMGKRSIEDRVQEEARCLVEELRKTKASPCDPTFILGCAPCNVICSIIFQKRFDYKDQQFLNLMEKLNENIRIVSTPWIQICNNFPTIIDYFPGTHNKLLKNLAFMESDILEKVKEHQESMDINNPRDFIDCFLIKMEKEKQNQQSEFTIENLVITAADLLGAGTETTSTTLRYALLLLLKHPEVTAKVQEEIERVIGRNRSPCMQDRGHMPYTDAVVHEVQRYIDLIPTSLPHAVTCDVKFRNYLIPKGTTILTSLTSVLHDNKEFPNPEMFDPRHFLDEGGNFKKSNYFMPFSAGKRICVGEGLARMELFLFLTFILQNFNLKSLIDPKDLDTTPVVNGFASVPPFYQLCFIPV

In the case of `O=C(Nc1ccc([N+](=O)[O-])cn1)c1cc(-c2cccc(Cl)c2)nc2ccccc12`, the EC50 was 0.809 µM (active) in data set [1] and > 30 µM (not active) in data set [2].
On to `COc1ccc2[nH]c(C)c(CCN(Cc3cccs3)C(S)=Nc3ccc(F)cc3)c2c1`, for which the EC50 is 4.21 µM (active) in data set [1] and > 60 µM (not active) in data set [2].
With `COc1cccc(-n2c(CN3CCN(c4cccc(C)c4)C(C)C3)nc3ccc([N+](=O)[O-])cc3c2=O)c1` (stereo unspecified), the values for the EC50 in data set [1] and in data set [2] were 1.91 µM (active) and > 60 µM (not active), respectively.
On to `CC(=O)OC[C@@H]1O[C@H](C/C=N\O[C@@H](C)c2cn([C@H]3COC[C@H]3O)nn2)C=C[C@@H]1OC(C)=O`, for which the concentration at half-maximal activity (AC50) result in data set [3] is listed as “inconclusive”.
Regarding `CC(C)c1ccc(Cn2ccc3c4c(N)nc(NC5CC5)nc4ccc32)cc1`, the concentration at half-maximal activity (AC50) in data set [3] (read-out: AC50) is 31.6 µM (inconclusive).
`CCN(CC)CC#CCC(O)(c1ccccc1)C1CCCC1` (stereo unspecified): the 50% effective concentration (EC50) was 0.52 µM (active) in data set [1] and > 60 µM (not active) in data set [2].
Turning to `Cc1ccccc1NC(=O)NCC1CCN(Cc2cccc(Cl)c2)CC1`, the EC50 in data set [1] is 1.14 µM (active); in data set [2], > 30 µM (not active).
With `Cc1noc(/C=C/N(C)C)c1S(=O)(=O)N1CCCC(C(=O)NC2CCCCC2)C1` (stereo unspecified), the EC50 in data set [1] is 0.484 µM (active); in data set [2], 6.5 µM (active).
Taken in the same sequence, the figures for `COc1ccc(OC)c(-c2nc(CN3CCCCC3c3cccnc3)c(C)o2)c1` (stereo unspecified) were 2.02 µM (active) and > 60 µM (not active).
As for `Cc1cccc(N(C)S(=O)(=O)c2ccc3[nH]c(=O)c(=O)[nH]c3c2)c1`, in data set [3] (read-out: AC50), the AC50 is 20 µM (inconclusive).
As to `O=c1cc(N2CCCCC2)c(-c2ccccc2)nn1Cc1ccc(F)cc1`, the figures for the concentration giving a half-maximal response (EC50) in data set [1] and in data set [2] were 2.17 µM (active) and 9.08 µM (active), respectively.
Taken in the same sequence, the figures for `COc1cccc(CC2(CO)CCCN(Cc3ccc(CN4CCCCC4)s3)C2)c1` (stereo unspecified) were 0.253 µM (active) and 9.85 µM (active).
Consider `COc1ccc(Cc2noc(CN3CCCN(C4Cc5ccccc5C4)CC3)n2)cc1OC`, for which the EC50 in data set [1] was 1.3 µM (active); in data set [2] it was > 60 µM (not active).
For the compound `COc1cc2c3cc1Oc1cc(ccc1O)C[C@@H]1c4c(cc(OC)c(O)c4Oc4ccc(cc4)C[C@H]3[N+](C)(C)CC2)CC[N+]1(C)C`, the AC50 entry in data set [3] is recorded as “inconclusive”.
Regarding `COC(=O)[C@@]1(Cc2ccc(F)cc2)[C@H]2c3cc(C(=O)N(C)C)n(CCCNc4ccc(C(F)(F)F)cc4Cl)c3C[C@H]2CN1C(=O)c1ccccc1`, in data set [3] (read-out: AC50), the AC50 was 25.1 µM (inconclusive).
As for `CCN(CC)C(=O)C1CC(=O)N(c2ccc(OC)cc2)C1c1ccc(OC)cc1` (stereo unspecified), the concentration at half-maximal activity (AC50) in data set [3] (read-out: AC50) is 39.8 µM (inconclusive).
Take `O=C1CC(c2ccc3c(c2)OCO3)CN1` (stereo unspecified): the half-maximal activity concentration (AC50) in data set [3] (read-out: AC50) is 39.8 µM (inconclusive).
On to `CC(=O)n1cc([C@H]2C=C(C(=O)N3CCN(Cc4ccccc4)CC3)O[C@@H](OCc3ccc(CO)cc3)C2)c2ccccc21`, for which the EC50 in data set [1] was 0.435 µM (active); in data set [2] it was > 30 µM (not active).
With `O=C(N/N=C/c1ccc([N+](=O)[O-])o1)c1ccc2c(c1)OCO2`, the values for the concentration giving a half-maximal response (EC50) in data set [1] and in data set [2] were 0.172 µM (active) and > 30 µM (not active), respectively.
Taken in the same sequence, the figures for `CN1c2ccc([N+](=O)[O-])cc2N(C)C1(C)c1ccccc1` (stereo unspecified) were 2.85 µM (active) and > 60 µM (not active).
Turning to `COc1ccc(CN2CCCC(CO)(Cc3ccc(F)cc3)C2)cc1C` (stereo unspecified), the concentration for a half-maximal effect (EC50) is 0.64 µM (active) in data set [1] and 9.58 µM (active) in data set [2].
`CCN(CC)c1ccc(/N=C/c2cc(Br)ccc2O)cc1`: the EC50 in data set [1] is 4.39 µM (active); in data set [2], > 60 µM (inconclusive).
Consider `CS(=O)(=O)NCCSCc1c(Cl)cccc1Cl`, for which the figures for the EC50 in data set [1] and in data set [2] were 36.9 µM (active) and > 60 µM (inconclusive), respectively.
For the compound `NC(=O)c1[nH]cnc1N`, the results for the concentration for a half-maximal effect (EC50) in data set [1] and in data set [2] were > 30 µM (not active) and 4.94 µM (active), respectively.

Broadly, the EC50 is the midpoint of the concentration-response curve. A word on the AC50: it is the concentration giving half of the maximal activity seen.

Source of the values: ChEMBL document CHEMBL1201862, “PubChem BioAssay data set” (2004).
